Reference: patent US12390447B2, “Sirtuin 6 protein deacylase (SIRT6) activators” (Wisconsin Alumni Research Foundation, priority 2019, dated 2025)

Experiments:
Assay type in all cases: biochemical
SIRT6 [1] = target: T1, SIRT6 (Homo sapiens, UniProt Q8N6T7); experiment: Histone deacetylation assay with acid extracted histones, H3K9ac immunoblot; conditions: 50 μM compound; histones 75 μg/mL from SAHA-treated HEK293T cells; SIRT6 1 μM
Description: HEK293T cells were cultured in Dulbecco's Modified Eagle Medium supplemented with 10% fetal bovine serum. Cells were treated with 10 μM SAHA for 24 hours prior to harvest. Cells were trypsinized and pelleted prior to washing twice with ice-cold PBS. Cells were then resuspended in 800 μL ice-cold 10 mM HEPES pH 7.4, 10 mM KCl, 0.05% NP-40, and histone deacetylase and protease inhibitors (1 mM sodium butyrate, 4 μM trichostatin A, 100 μM phenylmethylsulfonyl fluoride, 10 μg/mL leupeptin, and 10 μg/mL aprotinin) for 20 minutes. After a 1,000×g 10 minute spin at 4° C. the pelleted nuclei were resuspended in 0.2 M HCl and incubated on ice for 20 minutes. Following 10 minute spin at 21,000×g at 4° C. the acid extracted supernatant was neutralized with 1 M Tris-HCl pH 8 prior to BCA protein concentration measurement. Histone deacetylation assays were ran with 75 μg/mL extracted histones, 1 μM SIRT6, 50 μM CL5, CL5D or 5% DMSO control, 0.5 mM NAD^+, in 20 mM potassium phosphate pH 7.5. Reactions ran at 37° C. prior to quench with SDS loading dye and 5 minute boil. 540 ng of nuclei acid extract following sirtuin reaction were loaded for 15% SDS-PAGE followed by transfer to nitrocellulose. Membrane was blocked with 1% milk before blotted with anti-H3K9ac (Active Motiff 39917) 1:3000 and imaged. […] Bands were quantified using Image Studio Lite (LiCor). […]

SIRT6 WT = SIRT6 WT (Homo sapiens, UniProt Q8N6T7); experiment: Steady-state deacetylation rate of SIRT6 WT with or without CL5D; conditions: SIRT6 WT 1 μM, H3K9ac 40 μM, CL5D 50 μM, 25 minutes
Description: (§1) All sirtuin deacylation assays were carried out at 37° C. in 20 mM potassium phosphate pH 7.5 with 0.5 mM NAD^+, 10% DMSO, and 20 μM H3K9ac or H3K9myr peptides, unless otherwise noted in legend, and quenched by the addition of 2% TFA final. Steady-state reactions were constrained to less than 20% substrate turnover to prevent product inhibition. A variety of times were required to monitor SIRT6 deacetylation (2-60 minutes) under this restraint given the ability to strongly activate catalysis. In these cases, specific activities were determined and either reported as is or as fold-activation of specific activity. Deacylation reactions were analyzed by reversed phase high-performance liquid chromatography on a Kinetex C18 column (100 Å, 100×4.6 mm, 2.6 μm, Phenomenex) by monitoring the formation of the deacylated product at 214 nm. Deacetylation reactions were analyzed using a gradient of 33-100% B (30% acetonitrile with 0.05% TFA) in 8 min at 1.6 mL min^−1. Demyristoylation reactions were analyzed using a gradient of 3 to 100% B (acetonitrile with 0.05% TFA) in 10 min at 1.6 mL min^−1. The product and substrate peaks were quantified and ratio of these allowed for quantification of product formation. Three independent experiments were performed for each condition with averages being plotted and error bars representing the standard deviation of these replicates. […]

SIRT6 K81A = SIRT6 K81A (Homo sapiens, UniProt Q8N6T7, K81A); experiment: Steady-state deacetylation rate of SIRT6 K81A with or without CL5D; conditions: SIRT6 K81A 1 μM, H3K9ac 40 μM, CL5D 50 μM, 25 minutes
Description: as §1

SIRT6 K160A = SIRT6 K160A (Homo sapiens, UniProt Q8N6T7, K160A); experiment: Steady-state deacetylation rate of SIRT6 K160A with or without CL5D; conditions: SIRT6 K160A 1 μM, H3K9ac 40 μM, CL5D 50 μM, 25 minutes
Description: as §1

SIRT6 R65A = SIRT6 R65A (Homo sapiens, UniProt Q8N6T7, R65A); experiment: Steady-state deacetylation rate of SIRT6 R65A with or without CL5D; conditions: CL5D 50 μM
Description: as §1

SIRT6 [2] = target: T1, SIRT6; experiment: Burst kinetic analysis of SIRT6 deacetylation; conditions: SIRT6 10 μM, 400 μM H3K9ac peptide, 500 μM NAD+
Description: SIRT6 (10 μM) was mixed with either H3K9ac peptide (400 μM) or NAD^+ (500 μM) in 20 mM potassium phosphate pH 7.5 and preheated to 37° C. for 3 minutes. Reactions were initiated either through the addition of NAD^+ (500 μM final) or H3K9ac peptide (400 μM final) and quenched after 10-1800 seconds by the addition of 3% TFA final. For each experiment, a control reaction in which H3K9ac peptide was excluded was collected at each timepoint and subtracted from corresponding experimental reactions to control for NAD^+ degradation. Nicotinamide and deacetylated peptide product were quantified by reverse-phase HPLC as described in the rapid quench flow kinetics methods section.
To further dissect the catalytic step(s) in kcat/Km,H3K9ac that are enhanced in the presence of activator, reaction conditions were set up to identify the existence of product ‘bursts’ during the first catalytic turnover. High concentrations of SIRT6 (10 μM) in the presence of 400 μM H3K9ac peptide were rapidly mixed with 500 μM NAD^+, and after an acid quench at different times, the products nicotinamide and deacetylated peptide were resolved and quantified by HPLC. […] The order of substrate mixing had no effect on the product curves.

SIRT6 R65A, sequence (Q8N6T7 whole entry R65A): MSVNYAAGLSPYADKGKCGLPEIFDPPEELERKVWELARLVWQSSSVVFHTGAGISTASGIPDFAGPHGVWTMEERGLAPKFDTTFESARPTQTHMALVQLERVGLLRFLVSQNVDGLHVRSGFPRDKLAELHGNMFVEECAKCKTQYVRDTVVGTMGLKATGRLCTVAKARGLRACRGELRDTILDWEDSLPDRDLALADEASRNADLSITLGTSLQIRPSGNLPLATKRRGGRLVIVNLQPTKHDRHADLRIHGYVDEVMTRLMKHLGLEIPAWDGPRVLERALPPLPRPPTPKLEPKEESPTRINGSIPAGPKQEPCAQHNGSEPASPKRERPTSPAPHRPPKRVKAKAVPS
T1 sequence (Q8N6T7 whole entry): as the sequence (Q8N6T7 whole entry R65A) above, with A65R counted along it
SIRT6 K160A, sequence (Q8N6T7 whole entry K160A): as the sequence (Q8N6T7 whole entry R65A) above, with A65R, K160A counted along it
SIRT6 WT, sequence (Q8N6T7 whole entry): as the sequence (Q8N6T7 whole entry R65A) above, with A65R counted along it
SIRT6 K81A, sequence (Q8N6T7 whole entry K81A): as the sequence (Q8N6T7 whole entry R65A) above, with A65R, K81A counted along it

SIRT6 deacetylation at H3K9 of whole histone substrate (in words) (SIRT6 [1]): stimulated
RateCL5D (SIRT6 WT): 0.164 ± 0.008 µM/min
RateCL5D (SIRT6 K81A): 0.125 ± 0.003 µM/min
RateCL5D (SIRT6 K160A): 0.126 ± 0.006 µM/min
activation of SIRT6 R65A (in words) (SIRT6 R65A): cannot be activated
RateCL5D (SIRT6 R65A; SIRT6 R65A 1 μM, H3K9ac 40 μM, 25 minutes): 0.014 ± 0.004 µM/min
rate enhancement in the presence of CL5D (SIRT6 [2]): 1.8 fold
SMILES: O=C(O)c1ccc2c(c1)C(=O)N(c1ccc(N(C(=O)c3c(Cl)cc(Cl)cc3Cl)C(=O)c3c(Cl)cc(Cl)cc3Cl)c(Cl)c1)C2=O [CL-5D, 2-(3-chloro-4-(2,4,6-trichloro-N-(2,4,6-trichlorobenzoyl)benzamido)phenyl)-1,3-dioxoisoindoline-5-carboxylic acid]
